Publication PMC11581214, “Compound 4f, a novel brain-penetrant reversible monoacylglycerol inhibitor, ameliorates neuroinflammation, neuronal cell loss, and cognitive impairment in mice with kainic acid-induced neurodegeneration” (PLOS ONE, 2024)

Columns and labels:
monoamine oxidase-B = molecular target: T1, monoamine oxidase-B (Homo sapiens, UniProt P27338); assay: off-target panel enzyme assay (Eurofins), single concentration […]; assay type: biochemical
T1 construct: gene MAOB
T1 sequence (P27338 2-520): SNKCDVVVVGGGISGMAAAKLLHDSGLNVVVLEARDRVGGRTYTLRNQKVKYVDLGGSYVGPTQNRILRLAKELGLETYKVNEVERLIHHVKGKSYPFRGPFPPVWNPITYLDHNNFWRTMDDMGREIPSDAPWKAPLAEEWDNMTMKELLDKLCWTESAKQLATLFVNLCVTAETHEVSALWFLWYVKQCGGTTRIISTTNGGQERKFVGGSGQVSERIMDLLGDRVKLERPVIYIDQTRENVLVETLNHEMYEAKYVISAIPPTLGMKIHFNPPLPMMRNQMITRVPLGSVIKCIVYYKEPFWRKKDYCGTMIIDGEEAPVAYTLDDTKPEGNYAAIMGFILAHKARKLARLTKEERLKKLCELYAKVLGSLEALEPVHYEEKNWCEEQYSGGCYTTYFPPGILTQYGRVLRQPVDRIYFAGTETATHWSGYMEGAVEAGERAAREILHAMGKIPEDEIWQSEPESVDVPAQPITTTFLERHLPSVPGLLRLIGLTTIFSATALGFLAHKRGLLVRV

[1] = molecular target: T2, serotonin (5-hydroxytryptamine) 2B (Homo sapiens, UniProt P41595); assay: off-target panel of radioligand binding and functional assays (Eurofins), single concentration […]
T2 construct: gene HTR2B

[2] = molecular target: T3, monoacylglycerol lipase (MAGL) (Mus musculus, UniProt O35678); assay: in vivo brain target occupancy by displacement of MAGL tracer T-211 (LC-MS/MS); brain 2-AG increase and AA decrease; assay type: cell-based
T3 construct: gene Mgll
T3 sequence (O35678 1-303): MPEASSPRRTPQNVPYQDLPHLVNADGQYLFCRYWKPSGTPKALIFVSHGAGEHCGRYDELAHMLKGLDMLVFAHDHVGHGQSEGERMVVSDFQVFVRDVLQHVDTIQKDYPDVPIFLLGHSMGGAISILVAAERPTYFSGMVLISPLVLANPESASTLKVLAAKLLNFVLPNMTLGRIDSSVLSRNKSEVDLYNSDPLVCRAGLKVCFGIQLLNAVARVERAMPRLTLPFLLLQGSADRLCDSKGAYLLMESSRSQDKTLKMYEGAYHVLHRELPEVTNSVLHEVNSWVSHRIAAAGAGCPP

T2 sequence (P41595 whole entry): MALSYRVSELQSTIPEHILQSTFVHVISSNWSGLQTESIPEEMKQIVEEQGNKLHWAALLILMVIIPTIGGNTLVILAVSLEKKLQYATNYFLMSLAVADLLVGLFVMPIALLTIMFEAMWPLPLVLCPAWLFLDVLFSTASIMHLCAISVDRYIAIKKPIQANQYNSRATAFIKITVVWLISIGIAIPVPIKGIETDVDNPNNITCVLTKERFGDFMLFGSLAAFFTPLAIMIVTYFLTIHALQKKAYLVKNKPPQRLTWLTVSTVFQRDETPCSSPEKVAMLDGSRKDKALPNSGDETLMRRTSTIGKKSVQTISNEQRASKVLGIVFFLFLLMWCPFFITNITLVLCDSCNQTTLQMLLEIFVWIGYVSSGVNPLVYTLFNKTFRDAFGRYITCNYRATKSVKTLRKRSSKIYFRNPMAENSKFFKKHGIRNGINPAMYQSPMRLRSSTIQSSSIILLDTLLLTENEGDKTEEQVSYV

inhibition at 10 µM (monoamine oxidase-B): < 50% | inhibition at 10 µM [1]: 81% | receptor occupancy at 1 mg/kg [2]: > 99%
SMILES: Cc1ccc(COC2CN(C(=O)[C@H]3C[C@]4(COC(=O)N4)C3)C2)cc1Cl [4f]
